Measured values: ChEMBL document CHEMBL4819093, “Discovery of 1-[2-(1-methyl-1H-pyrazol-5-yl)-[1,2,4]triazolo[1,5-a]pyridin-6-yl]-3-(pyridin-4-ylmethyl)urea as a potent NAMPT (nicotinamide phosphoribosyltransferase) activator with attenuated CYP inhibition” (Bioorg Med Chem Lett, 2021)
≈ marks a conversion by molar mass, not a printed value.

Tests used:
[1] = molecular target: T1, Nicotinamide phosphoribosyltransferase (Homo sapiens, UniProt P43490); test: Activation of human NAMPT assessed as increase in NMN production by fluorescence based analysis
T1 sequence (P43490 whole entry): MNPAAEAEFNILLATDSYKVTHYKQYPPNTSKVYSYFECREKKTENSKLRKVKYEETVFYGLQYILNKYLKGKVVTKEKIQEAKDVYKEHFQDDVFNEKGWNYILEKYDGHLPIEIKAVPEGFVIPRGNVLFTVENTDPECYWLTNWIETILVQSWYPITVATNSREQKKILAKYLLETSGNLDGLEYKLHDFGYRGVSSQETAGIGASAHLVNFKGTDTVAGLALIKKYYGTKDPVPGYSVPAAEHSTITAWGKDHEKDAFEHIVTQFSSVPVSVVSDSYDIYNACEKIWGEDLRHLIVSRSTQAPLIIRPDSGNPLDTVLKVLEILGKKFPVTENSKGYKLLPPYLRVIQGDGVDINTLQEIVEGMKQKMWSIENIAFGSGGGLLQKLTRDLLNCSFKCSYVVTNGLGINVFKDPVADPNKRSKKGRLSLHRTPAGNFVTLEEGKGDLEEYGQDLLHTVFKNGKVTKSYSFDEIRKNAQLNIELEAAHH

[2] = Solubility of the compound at pH 1.2; settings: buffer
[3] = Half life in C57BL/6N mouse at 10 mg/kg, po; settings: in vivo
CYP3A4 = CYP3A4 (Homo sapiens, UniProt P08684); test: Inhibition of CYP3A4 (unknown origin) at 10 uM measured after 10 mins; assay type: ADME
Chain of CYP3A4 (P08684 whole entry): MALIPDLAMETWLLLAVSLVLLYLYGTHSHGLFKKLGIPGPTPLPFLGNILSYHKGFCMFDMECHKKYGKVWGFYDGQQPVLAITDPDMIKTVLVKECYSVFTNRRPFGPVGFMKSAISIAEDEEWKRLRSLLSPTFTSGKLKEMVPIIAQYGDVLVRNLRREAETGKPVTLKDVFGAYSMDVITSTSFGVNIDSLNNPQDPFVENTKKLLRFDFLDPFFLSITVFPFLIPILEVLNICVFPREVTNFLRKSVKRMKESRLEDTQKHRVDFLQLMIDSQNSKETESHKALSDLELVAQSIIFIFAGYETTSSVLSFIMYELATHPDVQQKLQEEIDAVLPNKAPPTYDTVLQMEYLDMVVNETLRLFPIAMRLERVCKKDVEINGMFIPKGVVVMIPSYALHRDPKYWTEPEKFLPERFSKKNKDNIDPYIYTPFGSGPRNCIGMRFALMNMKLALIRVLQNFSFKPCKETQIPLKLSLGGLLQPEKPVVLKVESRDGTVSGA

in vivo [4] = settings: C57BL/6N, mouse, po, 10 mg/kg
hERG (KCNH2) [5] = molecular target: T2, hERG (KCNH2) (Homo sapiens, UniProt Q12809); test: Inhibition of human ERG at 10 uM
T2 sequence (Q12809 whole entry): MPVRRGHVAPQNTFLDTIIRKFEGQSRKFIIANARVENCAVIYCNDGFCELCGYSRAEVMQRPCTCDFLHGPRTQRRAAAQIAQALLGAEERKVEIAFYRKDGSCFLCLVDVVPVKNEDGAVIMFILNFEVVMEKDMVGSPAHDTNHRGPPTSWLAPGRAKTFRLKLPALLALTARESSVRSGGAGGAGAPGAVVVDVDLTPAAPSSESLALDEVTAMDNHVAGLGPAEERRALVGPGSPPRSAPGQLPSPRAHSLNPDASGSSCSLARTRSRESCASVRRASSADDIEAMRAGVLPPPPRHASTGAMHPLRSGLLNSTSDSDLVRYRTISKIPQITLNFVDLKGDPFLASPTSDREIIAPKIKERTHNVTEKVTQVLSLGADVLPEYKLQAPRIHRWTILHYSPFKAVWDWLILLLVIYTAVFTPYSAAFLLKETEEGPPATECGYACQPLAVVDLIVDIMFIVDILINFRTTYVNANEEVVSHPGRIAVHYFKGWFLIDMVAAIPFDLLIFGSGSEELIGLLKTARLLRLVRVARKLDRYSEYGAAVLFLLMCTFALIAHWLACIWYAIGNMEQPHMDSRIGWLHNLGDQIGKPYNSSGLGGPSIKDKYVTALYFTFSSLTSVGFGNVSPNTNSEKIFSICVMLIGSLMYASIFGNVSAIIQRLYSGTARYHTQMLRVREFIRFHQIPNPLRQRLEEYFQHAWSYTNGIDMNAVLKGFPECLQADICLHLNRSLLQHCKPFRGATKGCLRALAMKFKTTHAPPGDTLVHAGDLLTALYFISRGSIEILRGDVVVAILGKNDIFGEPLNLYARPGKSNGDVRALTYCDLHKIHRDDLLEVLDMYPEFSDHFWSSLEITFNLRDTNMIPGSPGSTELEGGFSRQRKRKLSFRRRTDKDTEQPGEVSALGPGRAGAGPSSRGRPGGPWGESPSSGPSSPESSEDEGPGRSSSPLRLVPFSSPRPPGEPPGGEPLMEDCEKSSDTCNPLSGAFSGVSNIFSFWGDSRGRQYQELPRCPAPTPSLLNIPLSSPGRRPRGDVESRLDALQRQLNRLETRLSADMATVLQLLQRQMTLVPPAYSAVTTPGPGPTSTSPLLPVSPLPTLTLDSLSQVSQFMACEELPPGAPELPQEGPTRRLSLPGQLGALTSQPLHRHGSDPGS

CYP2D6 = CYP2D6 (Homo sapiens, UniProt P10635); test: Inhibition of CYP2D6 (unknown origin) at 10 uM measured after 10 mins; assay type: ADME
Chain of CYP2D6 (P10635 whole entry): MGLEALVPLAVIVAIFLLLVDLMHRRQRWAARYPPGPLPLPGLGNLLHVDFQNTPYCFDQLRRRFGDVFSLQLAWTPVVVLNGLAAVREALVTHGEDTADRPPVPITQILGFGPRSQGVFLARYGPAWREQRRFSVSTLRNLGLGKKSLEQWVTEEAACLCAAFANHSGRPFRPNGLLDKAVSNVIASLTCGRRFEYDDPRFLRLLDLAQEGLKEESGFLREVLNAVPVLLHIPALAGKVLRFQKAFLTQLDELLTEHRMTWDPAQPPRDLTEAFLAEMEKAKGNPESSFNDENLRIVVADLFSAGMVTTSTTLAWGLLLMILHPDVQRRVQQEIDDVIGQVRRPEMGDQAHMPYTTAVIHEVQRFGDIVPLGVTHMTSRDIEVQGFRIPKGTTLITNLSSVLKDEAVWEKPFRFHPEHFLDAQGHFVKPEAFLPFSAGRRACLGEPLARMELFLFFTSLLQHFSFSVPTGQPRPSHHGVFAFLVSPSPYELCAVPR

[6] = Metabolic stability in mouse microsome fraction assessed as parent compound remaining at 1 uM measured after 30 mins; settings: microsomes
CYP2C9 = CYP2C9 (Homo sapiens, UniProt P11712); test: Inhibition of CYP2C9 (unknown origin) at 10 uM measured after 10 mins; assay type: ADME
Chain of CYP2C9 (P11712 whole entry): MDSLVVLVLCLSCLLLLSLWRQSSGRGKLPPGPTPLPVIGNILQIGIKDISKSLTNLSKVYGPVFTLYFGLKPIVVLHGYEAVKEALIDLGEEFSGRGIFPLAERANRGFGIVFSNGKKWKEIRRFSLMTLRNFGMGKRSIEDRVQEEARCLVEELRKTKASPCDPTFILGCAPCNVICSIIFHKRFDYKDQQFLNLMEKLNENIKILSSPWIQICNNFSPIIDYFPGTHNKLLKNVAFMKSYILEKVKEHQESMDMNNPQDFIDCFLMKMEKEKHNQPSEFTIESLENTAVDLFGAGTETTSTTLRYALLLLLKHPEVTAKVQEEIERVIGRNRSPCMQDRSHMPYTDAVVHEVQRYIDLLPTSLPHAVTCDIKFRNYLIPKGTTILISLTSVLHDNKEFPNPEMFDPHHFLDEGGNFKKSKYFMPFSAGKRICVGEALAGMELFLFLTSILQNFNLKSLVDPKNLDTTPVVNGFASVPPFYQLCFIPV

in vivo [7] = settings: C57BL/6N, mouse, po, 10 mg/kg; remark: listed apart in the source
[8] = Solubility of the compound at pH 6.8; settings: buffer
[9] = 1-Octanol/PBS buffer distribution coefficient, log D of the compound at pH 7.4
[10] = Permeability of the compound at pH 5 by PAMPA
[11] = Permeability of the compound at pH 7.4 by PAMPA
hERG (KCNH2) [12] = molecular target: T2, hERG (KCNH2); test: Inhibition of human ERG at 30 uM
[13] = Metabolic stability in human microsome assessed as parent compound remaining at 1 uM measured after 30 mins; settings: microsomes
CYP1A2 = molecular target: T3, CYP1A2 (Homo sapiens, UniProt P05177); test: Inhibition of CYP1A2 (unknown origin) at 10 uM measured after 10 mins; assay type: ADME
T3 sequence (P05177 whole entry): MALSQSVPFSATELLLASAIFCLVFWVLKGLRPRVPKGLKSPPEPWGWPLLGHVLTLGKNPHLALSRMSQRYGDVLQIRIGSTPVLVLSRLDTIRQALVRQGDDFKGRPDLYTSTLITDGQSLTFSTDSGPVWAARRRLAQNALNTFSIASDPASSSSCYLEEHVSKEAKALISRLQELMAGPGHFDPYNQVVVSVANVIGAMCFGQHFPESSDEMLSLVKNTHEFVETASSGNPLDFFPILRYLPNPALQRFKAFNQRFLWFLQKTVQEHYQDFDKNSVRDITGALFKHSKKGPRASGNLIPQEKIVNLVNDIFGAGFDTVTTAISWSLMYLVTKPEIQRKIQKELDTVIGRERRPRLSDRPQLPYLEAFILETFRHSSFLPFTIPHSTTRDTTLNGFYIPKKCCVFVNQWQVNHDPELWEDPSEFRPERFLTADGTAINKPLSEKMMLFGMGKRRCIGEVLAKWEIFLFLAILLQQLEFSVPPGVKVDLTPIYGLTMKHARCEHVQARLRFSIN

hERG (KCNH2) [14] = molecular target: T2, hERG (KCNH2); test: Inhibition of human ERG at 3 uM
[15] = molecular target: T1, Nicotinamide phosphoribosyltransferase; test: Inhibition of human NAMPT assessed as decrease in NMN production by fluorescence based analysis

Row | EC50 [1] [nM] | inhibition at 10 min, 10 µM (CYP3A4) [%] | inhibition at 10 min, 10 µM (CYP2D6) [%] | inhibition at 10 min, 10 µM (CYP2C9) [%] | inhibition at 10 min, 10 µM (CYP1A2) [%] | Structure (SMILES) | other results
1 | 5800 | – | – | – | – | CC(C)c1nc2ccc(NC(=O)NCc3ccncc3)cn2n1 | –
2 | 83 | 37 | 21 | 79 | 63 | O=C(NCc1ccncc1)Nc1ccc2nc(-c3ccccc3)nn2c1 | solubility [2]: > 680 µg/mL; half-life [3]: 54 min; AUC(0-t) at 24 h (in vivo [4]): 25 µM·h; inhibition at 10 µM (hERG (KCNH2) [5]): 51%; remaining at 0.5 h, 1 µM [6]: 86%; Cmax (in vivo [7]): 9.2 µM; solubility [8]: 92 µg/mL (≈ 267 µM); logD [9]: 3; Papp [10]: 1.42 ×10⁻⁶ cm/s; Papp [11]: 2.76 ×10⁻⁶ cm/s; inhibition at 30 µM (hERG (KCNH2) [12]): 69%; remaining at 0.5 h, 1 µM [13]: 95%; inhibition at 3 µM (hERG (KCNH2) [14]): 20%
3 | – | 18 | 13 | 44 | 6 | COCCn1nccc1-c1nc2ccc(NC(=O)NCc3ccncc3)cn2n1 | –
4 | – | 75 | 50 | 74 | 88 | O=C(NCc1ccncc1)Nc1ccc2cn(-c3ccccc3)nc2c1 | remaining at 0.5 h, 1 µM [6]: 83%; logD [9]: 3.2; Papp [10]: 4.6 ×10⁻⁶ cm/s; Papp [11]: > 5 ×10⁻⁶ cm/s; remaining at 0.5 h, 1 µM [13]: 87%
5 | 480 | – | – | – | – | Cc1ccc(C(=O)N2CCc3cc(NC(=O)NCc4ccncc4)ccc32)cc1 | –
6 | 120 | 40 | 27 | 75 | 51 | Cn1cccc1-c1nc2ccc(NC(=O)NCc3ccncc3)cn2n1 | logD [9]: 2.6
7 | – | 0 | 23 | 59 | 86 | O=C(NCc1cn[nH]c1)Nc1ccc2nc(-c3ccccc3)nn2c1 | –
8 | – | 0 | 13 | 59 | 69 | O=C(NCc1cnco1)Nc1ccc2nc(-c3ccccc3)nn2c1 | –
9 | – | – | – | – | – | Cc1ccc(C(=O)N2CCc3cc(NC(=O)NCc4cccnc4)ccc32)cc1 | IC50 [15]: 32 nM
10 | – | 65 | 50 | 78 | 43 | O=C(NCc1ccncc1)Nc1ccc2nc(-c3ccccc3OC(F)(F)F)nn2c1 | –
11 | – | 4 | 17 | 79 | 12 | CC(C)n1nccc1-c1nc2ccc(NC(=O)NCc3ccncc3)cn2n1 | –
12 | – | 0 | 36 | 90 | 28 | O=C(NCc1ccncc1)Nc1ccc2nc(-c3cccc(OC(F)(F)F)c3)nn2c1 | –
13 | – | 53 | 70 | 78 | 81 | O=C(NCc1ccncc1)Nc1ccc2cc(-c3ccccc3)nn2c1 | –
14 | > 100000 | 0 | 24 | 81 | 8 | O=C(NCc1ccncc1)Nc1ccc2nc(-c3ccc(OC(F)(F)F)cc3)nn2c1 | logD [9]: 4.4
15 | – | 25 | 16 | 42 | 15 | Cn1nccc1-c1nc2ccc(NC(=O)NCc3ccncc3)cn2n1 | inhibition at 10 µM (hERG (KCNH2) [5]): 14%; inhibition at 30 µM (hERG (KCNH2) [12]): 25%; inhibition at 3 µM (hERG (KCNH2) [14]): 11%
